Measured values: patent publication US20220411726A1, “STABILIZED LIQUID BORON-FREE ENZYME COMPOSITIONS” (Novozymes A/S, priority 2019, published 2022)

Columns and labels:
Protease = assay: Increase in enzyme solubility (supernatant enzyme activity), protease; format: physicochemical; conditions: protease suspension, 2 hours at room temperature
Method: (§1) An aqueous enzyme solution produced via fermentation of microorganism and recovered by removal of cells were concentrated using ultrafiltration to form a supersaturated protein solution. The solution was cooled below 5° C. for more than 24 hours to generate protein precipitate. The protein precipitate was suspended in the cold solution by shaking before use. Water and 1,2-hexanediol or glycerol were added to the protein suspension to obtain a diluted protein suspension with the indicated concentration of 1,2-hexanediol or glycerol while keeping the dilution of the protein suspension constant (70% w/w protein suspension to 30% w/w water/1,2-hexanediol/glycerol). The diluted protein suspensions were mixed for 2 hours at room temperature on a magnetic stirred followed by centrifugation to generate a clear supernatant. The obtained supernatant was analyzed for enzyme activity. The data in Table 5 show how much the enzyme solubility (enzyme activity) has increased compared to the reference sample, which only contains water.

Pectate lyase = assay: Increase in enzyme solubility (supernatant enzyme activity), pectate lyase; format: physicochemical; conditions: pectate lyase suspension, 2 hours at room temperature
Method: as §1

Mannanase = assay: Increase in enzyme solubility (supernatant enzyme activity), mannanase; format: physicochemical; conditions: mannanase suspension, 2 hours at room temperature
Method: as §1

[1] = system: aqueous pectate lyase solution; assay: Physical stability of a pectate lyase solution with 1,2-hexanediol or glycerol (visual inspection and NTU); format: physicochemical; conditions: additive 10% w/w; pectate lyase 8.1% w/w; 4 weeks at 25° C.
Method: (§2) Physical stability is the ability to maintain a transparent, preferably clear, composition. This may be evaluated by visual inspection, or by centrifugation. For example, the liquid composition may centrifugated at 1200 G for 10 minutes to determine if a pellet (solid phase) is formed. Alternatively, transparency may be measured as turbidity or haziness, by using a nephelometer to measure NTU to determine light scattering.
(§3) An aqueous protease solution and an aqueous pectate lyase solution were formulated with 10% w/w water, 10% w/w 1,2-hexanediol, or 10% w/w glycerol to a final enzyme protein concentration of 6.8% w/w and 8.1% w/w, respectively. The physical stability was evaluated after storage for 4 weeks at 25° C., by visual inspection and by NTU measurements, as shown in Table 4.

[2] = system: aqueous protease solution; assay: Physical stability of a protease solution with 1,2-hexanediol or glycerol (visual inspection and NTU); format: physicochemical; conditions: additive 10% w/w; protease 6.8% w/w; 4 weeks at 25° C.
Method: as §2, §3

[3] = system: Aspergillus niger, Candida parapsilosis, Candida famata; assay: Microbial stability challenge of protease formulation, bottle 3; format: cell-based; conditions: inoculated to 10^5 CFU/mL
Method: (§4) An aqueous protease (subtilisin) solution was formulated with 40% w/w glycerol at pH 6.0 to a final enzyme protein concentration of 5.5% w/w. Two samples were prepared by adding 4% w/w 1,2-hexanediol or 0.3% w/w 1,2-octanediol to the protease solution.
(§5) This was done by challenging the formulations with the microorganisms in Table 7. Each of the three bottles in Table 8 were inoculated to a total of 10^5 CFU/mL of the test microorganisms.
(§6) The bottles were analyzed for CFU/mL after 2 and 4 weeks of incubation at 20-25° C. CFU (colony forming units) per mL was measured using standard microbiological methods.

aqueous lipase solution = assay: Physical stability of a lipase solution with 1,2-hexanediol or 1,2-octanediol (visual inspection); format: physicochemical; conditions: lipase 3% w/w, 15% w/w sorbitol, 6% w/w MPG
Method: as §2
An aqueous lipase solution was formulated with 15% w/w sorbitol and 6% w/w MPG to a final enzyme protein concentration of 3% w/w. Two samples were prepared by adding 1% w/w 1,2-hexanediol or 0.3% w/w 1,2-octanediol to the lipase solution.

[4] = system: Lactobacillus buchneri, Lactobacillus para paracasei; assay: Microbial stability challenge of protease formulation, bottle 2; format: cell-based; conditions: inoculated to 10^5 CFU/mL
Method: as §4, §5, §6

aqueous amylase solution = assay: Physical stability of an amylase solution with 1,2-octanediol (visual inspection and NTU); format: physicochemical; conditions: 0.3% w/w 1,2-octanediol, amylase 4.3% w/w, 40% w/w glycerol, pH 4.8
Method: as §2
An aqueous amylase solution was formulated with 40% w/w glycerol at pH 4.8 to a final enzyme protein concentration of 4.3% w/w. A sample was prepared by adding 0.3% w/w 1,2-octanediol to the amylase solution, and the physical stability was evaluated by visual inspection and NTU measurement, as shown in Table 2.

[5] = system: Escherichia coli, Pseudomonas aeruginosa, Salmonella havana, Acinetobacter spp., Staphylococcus aureus, Staphylococcus xylosus, Enterococcus faecium; assay: Microbial stability challenge of protease formulation, bottle 1; format: cell-based; conditions: inoculated to 10^5 CFU/mL
Method: as §4, §5, §6

protease (subtilisin) = assay: Enzymatic stability: residual activity of protease after 4 weeks storage; format: physicochemical
Method: Enzymatic stability is the ability to maintain enzymatic activity after storage. This may be determined by measuring the enzymatic activity before and after storage (for example, 4 weeks storage at 25° C.) to determine how much activity is lost. For practical purposes, the residual activity may be determined by comparing the activity of a stored sample and a frozen reference sample, which are analyzed at the same time to eliminate analytical day-to-day variation.
An aqueous protease (subtilisin) solution was produced via fermentation of microorganism, recovered by removal of cells and concentrated using ultrafiltration. Water and 1,2-hexanediol were added to the protease solution to obtain a diluted protease solution with the indicated concentration of 1,2-hexanediol while keeping the dilution of the protease solution constant (70 w/w % protease solution to 30% w/w water/1,2-hexanediol). The diluted protease solutions were incubated in closed vials at −18° C., 25° C. and 40° C. for 4 weeks. The protease activity was measured in the stored samples and residual activity calculated by using protease activity in samples stored at −18° C. as reference.

[6] = system: amylase (Fortiva Revo from Novozymes); assay: Turbidity of commercial liquid amylase product after addition of 1,2-hexanediol (nephelometer); format: physicochemical
Method: (§7) The transparency (turbidity) of two commercial liquid protease (Fermax from Novozymes) and amylase (Fortiva Revo from Novozymes) products were evaluated before and after addition of different amounts of 1,2-hexanediol.

[7] = system: protease (Fermax from Novozymes); assay: Turbidity of commercial liquid protease product after addition of 1,2-hexanediol (nephelometer); format: physicochemical
Method: as §7

[8] = 0.3% w/w 1,2-octanediol, 2 weeks at 20-25° C.
[9] = 0.3% w/w 1,2-octanediol, 4 weeks at 20-25° C.
[10] = 4% w/w 1,2-hexanediol, 2 weeks at 20-25° C.
[11] = 4% w/w 1,2-hexanediol, 4 weeks at 20-25° C.

OCC(O)CO [Glycerol, glycerol, reference compound]
Increase in enzyme solubility (enzyme activity) compared to the reference sample (Protease; additive 2% w/w): 0%
Increase in enzyme solubility (enzyme activity) compared to the reference sample (Protease; additive 5% w/w): 3%
Increase in enzyme solubility (enzyme activity) compared to the reference sample (Pectate lyase; additive 2% w/w): 10%
Increase in enzyme solubility (enzyme activity) compared to the reference sample (Pectate lyase; additive 5% w/w): 32%
Increase in enzyme solubility (enzyme activity) compared to the reference sample (Mannanase; additive 2% w/w): 10%
Increase in enzyme solubility (enzyme activity) compared to the reference sample (Mannanase; additive 5% w/w): 41%
Turbidity [1]: 540 NTU
Visual score [1]: precipitate
Turbidity [2]: 71.2 NTU
Visual score [2]: precipitate

CCCCCCC(O)CO (stereo not drawn) [1,2-octanediol]
Microbial stability, measured as CFU/mL [3, 8]: 7.0 × 10^2 CFU/mL
Microbial stability, measured as CFU/mL [3, 9]: <1.0 × 10^2 CFU/mL
Physical stability by visual inspection (aqueous lipase solution; 0.3% w/w 1,2-octanediol, 4 weeks at 5° C.): clear
Physical stability by visual inspection (aqueous lipase solution; 0.3% w/w 1,2-octanediol, 4 weeks at 25° C.): clear
Physical stability by visual inspection (aqueous lipase solution; 0.3% w/w 1,2-octanediol, 4 weeks at 40° C.): haze
Microbial stability, measured as CFU/mL [4, 8]: <1.0 × 10^2 CFU/mL
Microbial stability, measured as CFU/mL [4, 9]: <1.0 × 10^2 CFU/mL
Turbidity (aqueous amylase solution; 4 weeks at 5° C.): 19.1 NTU
Visual score (aqueous amylase solution; 4 weeks at 5° C.): haze
Turbidity (aqueous amylase solution; 4 weeks at 25° C.): 11.9 NTU
Visual score (aqueous amylase solution; 4 weeks at 25° C.): haze
Turbidity (aqueous amylase solution; 4 weeks at 40° C.): 12.7 NTU
Visual score (aqueous amylase solution; 4 weeks at 40° C.): haze
Microbial stability, measured as CFU/mL [5, 8]: 3.0 × 10^2 CFU/mL
Microbial stability, measured as CFU/mL [5, 9]: <1.0 × 10^2 CFU/mL

CCCCC(O)CO (stereo not drawn) [1,2-hexanediol]
Increase in enzyme solubility (enzyme activity) compared to the reference sample (Protease; additive 2% w/w): 11%
Increase in enzyme solubility (enzyme activity) compared to the reference sample (Protease; additive 5% w/w): 47%
Microbial stability, measured as CFU/mL [3, 10]: <1.0 × 10^2 CFU/mL
Microbial stability, measured as CFU/mL [3, 11]: <1.0 × 10^2 CFU/mL
Residual activity of protease after 4 weeks storage (protease (subtilisin); 2% w/w 1,2-hexanediol, 25° C.): 48%
Residual activity of protease after 4 weeks storage (protease (subtilisin); 2% w/w 1,2-hexanediol, 40° C.): 8%
Residual activity of protease after 4 weeks storage (protease (subtilisin); 2% w/w 1,2-hexanediol, −18° C. (reference temperature for the calculation)): 100%
Residual activity of protease after 4 weeks storage (protease (subtilisin); 5% w/w 1,2-hexanediol, 25° C. (room temperature)): 77%
Residual activity of protease after 4 weeks storage (protease (subtilisin); 5% w/w 1,2-hexanediol, 40° C.): 14%
Residual activity of protease after 4 weeks storage (protease (subtilisin); 5% w/w 1,2-hexanediol, −18° C. (reference temperature for the calculation)): 100%
Physical stability by visual inspection (aqueous lipase solution; 1% w/w 1,2-hexanediol, 4 weeks at 5° C.): clear
Physical stability by visual inspection (aqueous lipase solution; 1% w/w 1,2-hexanediol, 4 weeks at 25° C.): haze
Physical stability by visual inspection (aqueous lipase solution; 1% w/w 1,2-hexanediol, 4 weeks at 40° C.): precipitate
Turbidity ([6]; 5% w/w 1,2-hexanediol added to liquid amylase product): 17.2 NTU
Turbidity ([6]; 10% w/w 1,2-hexanediol added to liquid amylase product): 14.6 NTU
Increase in enzyme solubility (enzyme activity) compared to the reference sample (Pectate lyase; additive 2% w/w): 32%
Increase in enzyme solubility (enzyme activity) compared to the reference sample (Pectate lyase; additive 5% w/w): 66%
Increase in enzyme solubility (enzyme activity) compared to the reference sample (Mannanase; additive 2% w/w): 7%
Increase in enzyme solubility (enzyme activity) compared to the reference sample (Mannanase; additive 5% w/w): 48%
Microbial stability, measured as CFU/mL [4, 10]: <1.0 × 10^2 CFU/mL
Microbial stability, measured as CFU/mL [4, 11]: <1.0 × 10^2 CFU/mL
Turbidity [1]: 31.2 NTU
Visual score [1]: haze
Turbidity [2]: 9.4 NTU
Visual score [2]: clear
Microbial stability, measured as CFU/mL [5, 10]: <1.0 × 10^2 CFU/mL
Microbial stability, measured as CFU/mL [5, 11]: <1.0 × 10^2 CFU/mL
Turbidity ([7]; 5% w/w 1,2-hexanediol added to liquid protease product): 21.2 NTU
Turbidity ([7]; 10% w/w 1,2-hexanediol added to liquid protease product): 11.7 NTU
